This is an account of results in patent US7972815B2, “Method of producing sugar chain using human G4 polypeptide” (Kyowa Hakko Kirin Co., Ltd., priority 1999, dated 2011).

Experiment [1] deals with T1, β1,3-N-acetylglucosaminyl transferase (G7) (Homo sapiens, UniProt Q9C0J1).
T1 construct: made in house; host or cells: Sf21 insect cells infected with recombinant baculovirus from pVL1393-F2G7
Kind of experiment: Substrate specificity of G7 with pyridylaminated oligosaccharides. The experiment is classed as biochemical. Conditions: pyridylaminated substrate, 37° C., 16 hours, activity for LNnT defined as 100%. How it is done: (§1) The method shown in Example 8 was used as the activity measuring method. Specifically, after the reaction at 37° C. for 14.5 hours in 30 μl of an assay solution [200 mmol/l of MOPS (pH 7.5), 20 mmol/l of UDP-GlcNAc (SIGMA), 20 mmol/l of MnCl2, 50 μmol/l of pyridylaminated sugar chain substrate and 15 μl of the above eluate], products were detected by HPLC. As substrates, LNnT, lacto-N-tetraose (Galβ1-3GlcNAcβ1-3Galβ1-4Glc, hereinafter referred to as “LNT”), lacto-N-fucopentaose II (Galβ1-3(Fucα1-4)GlcNAcβ1-3Galβ1-4Glc, hereinafter referred to as “LNFP-II”), lacto-N-fucopentaose III (Galβ1-4(Fucα1-3)GlcNAcβ1-3Galβ1-4Glc, hereinafter referred to as “LNFP-III”), lacto-N-fucopentaose V (Galβ1-3GlcNAcβ1-3Galβ1-4(Fucα1-3)Glc, hereinafter referred to as “LNFP-V”) and lacto-N-difucohexaose II (Galβ1-3(Fucα1-4)GlcNAcβ1-3Galβ1-4(Fucα1-3)Glc, hereinafter referred to as “LNDFH-II”) (all manufactured by Oxford Glycosystems) were used after fluorescently labeling them with aminopyridine. Fluorescence labeling of these substrates were carried out in accordance with the usual method [Agric. Biol. Chem., 54, 2169 (1990)].
(§2) For each substrate, the reaction was carried using the assay solution with or without UDP-GlcNAc (sugar donor), and then HPLC was carried out and peaks appeared only in the assay solution containing UDP-GlcNAc were defined as products.
(§3) The assay solution after completion of the reaction was treated at 100° C. for 5 minutes and then centrifuged at 10,000×g for 5 minutes, and a portion (5 μl) of the thus obtained supernatant was applied to HPLC.
(§4) The HPLC was carried out by using TSK-gel ODS-80Ts column (4.6×300 mm; Tosoh); 0.02 mol/l ammonium acetate buffer (pH 4.0) was used as the eluate at an elution temperature of 50° C. and at a flow rate of 0.5 ml/min.
(§5) Products were detected by using a fluorescence spectrum photometer FP-920 (JASCO Corporation) (excitation wavelength 320 nm, radiation wavelength 400 nm).
Examination of the substrate specificity of a β1,3-N-acetylglucosaminyl transferase (G7) was carried out using the FLAG peptide-fused G7 polypeptide purified in Example 17.
Substrate specificity of the FLAG peptide-fused G7 polypeptide was examined by the method shown in Example 11(1). The reaction was carried out at 37° C. for 16 hours.

Experiment [2] deals with T2, β1,3-N-acetylglucosaminyl transferase (G4) (Homo sapiens, UniProt Q9Y2A9, R328H).
T2 construct: made in house; host or cells: Sf21 insect cells infected with recombinant baculovirus from pVL1393-F2G4
T2 sequence (Q9Y2A9 38-372 R328H): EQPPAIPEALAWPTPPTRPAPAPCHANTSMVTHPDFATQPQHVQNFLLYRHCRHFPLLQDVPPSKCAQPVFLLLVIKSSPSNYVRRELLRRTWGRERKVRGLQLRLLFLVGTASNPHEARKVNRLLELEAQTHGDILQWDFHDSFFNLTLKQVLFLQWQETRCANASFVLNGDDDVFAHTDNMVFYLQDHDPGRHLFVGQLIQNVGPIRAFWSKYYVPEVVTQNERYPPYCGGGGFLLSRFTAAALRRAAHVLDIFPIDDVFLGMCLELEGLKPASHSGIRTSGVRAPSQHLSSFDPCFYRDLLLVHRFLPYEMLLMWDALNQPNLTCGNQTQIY
The experiment can be described thus: Substrate specificity of G4 with pyridylaminated oligosaccharides. The experiment is classed as biochemical. Particulars: pyridylaminated substrate 50 μmol/l, 37° C., 14.5 hours, activity on LNnT defined as 100%. As to the method:
Examination on the substrate specificity of a β1,3-N-acetylglucosaminyl transferase (G4) was carried out by using the FLAG peptide-fused G4 polypeptide produced as a secreted form in Example 10.
as §1, §2, §3, §4, §5

The target in experiment [3] is T3, β1,3-N-acetylglucosaminyl transferase (G3) (Homo sapiens, UniProt Q9NY97).
T3 construct: made in house; host or cells: Sf21 insect cells infected with recombinant baculovirus from pVL1393-F2G3
T3 sequence (Q9NY97 31-397): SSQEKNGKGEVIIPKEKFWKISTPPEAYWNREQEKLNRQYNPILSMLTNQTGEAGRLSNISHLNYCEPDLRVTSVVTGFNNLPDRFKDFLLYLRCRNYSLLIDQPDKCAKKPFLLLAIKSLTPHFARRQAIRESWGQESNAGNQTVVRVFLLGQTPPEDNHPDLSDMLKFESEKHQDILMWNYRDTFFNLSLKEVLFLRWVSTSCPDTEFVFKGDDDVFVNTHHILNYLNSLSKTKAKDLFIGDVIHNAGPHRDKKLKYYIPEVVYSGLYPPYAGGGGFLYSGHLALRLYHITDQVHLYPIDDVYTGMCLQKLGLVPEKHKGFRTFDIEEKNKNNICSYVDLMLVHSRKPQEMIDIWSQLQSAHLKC
The experiment can be described thus: Substrate specificity of G3 with pyridylaminated oligosaccharides. The class given is biochemical. Conditions: pyridylaminated substrate, 37° C., 2 hours, activity on LNnT defined as 100%. How it is done:
as §1, §2, §3, §4, §5
Substrate specificity of a β1,3-N-acetylglucosaminyl transferase (G3) was examined using the FLAG peptide-fused G3 polypeptide purified in Example 14.
Substrate specificity of the FLAG peptide-fused G3 polypeptide was examined by the method shown in Example 11(1). The reaction was carried out at 37° C. for 2 hours.

In experiment [4] the target is T3, β1,3-N-acetylglucosaminyl transferase (G3). Kind of experiment: Substrate specificity of G3 with unlabeled oligosaccharides. The class given is biochemical. Conditions: unlabeled substrate, 37° C., 2 hours, activity for LNnT defined as 100%. How it is done: (§6) The reaction using the glycosyltransferase was carried out as follows. The reaction was carried out at 37° C. for 16 hours in 40 μl of an assay solution [50 mmol/l MOPS (pH 7.5), 5 mmol/l UDP-GlcNAc (SIGMA), 5 mmol/l MnCl2, […] and 10 μl of the above eluate]. Next, the reaction solution was treated at 100° C. for 5 minutes and then centrifuged at 10,000×g for 20 minutes to obtain the supernatant, and a portion thereof was analyzed using HPAE/PAD (High Performance Anion Pulsed Amperometoric Detection; manufactured by DIONEX). The specific method was carried out in the usual way [Anal. Biochem., 189, 151 (1990), J. Biol. Chem., 273, 433 (1998)].
(§7) As substrates, the following unlabeled oligosaccharides were used: lactose (Galβ1-4Glc), N-acetyllactosamine (Galβ1-4GlcNAc, hereinafter referred to as “LacNAc” in some cases), LNnT, LNT and lacto-N-neohexaose (Galβ1-4GlcNACβ1-3Galβ1-4GlcNAcβ1-3Galβ1-4Glc, hereinafter referred to as “LNnH”).
as §2
(§8) In identifying the product, coincidence of its elution time with that of a standard sugar chain was used as the index. As the standard sugar chains, GlcNAcβ1-3Galβ1-4Glc, GlcNAcβ1-3Galβ1-4GlcNAc and GlcNAcβ1-3Galβ1-4GlcNAcβ1-3Galβ1-4Glc were used.
Substrate specificity of the FLAG peptide-fused G3 polypeptide was examined by the method shown in Example 11(2). The enzyme reaction was carried out at 37° C. for 2 hours.

For experiment [5], the target named is T2, β1,3-N-acetylglucosaminyl transferase (G4). The experiment can be described thus: Substrate specificity of G4 with unlabeled oligosaccharides (HPAE/PAD). Particulars: unlabeled substrate, 37° C., 16 hours, activity on LNnT defined as 100%. The experiment is classed as biochemical. As to the method: as §6, §7, §2, §8
For experiment [6], the target named is T1, β1,3-N-acetylglucosaminyl transferase (G7). The experiment can be described thus: Substrate specificity of G7 with unlabeled oligosaccharides. The class given is biochemical. Conditions: unlabeled substrate, 37° C., 15.5 hours, activity for LNnT defined as 100%. As to the method:
as §6, §7, §2, §8
Substrate specificity of the FLAG peptide-fused G7 polypeptide was examined using the method shown in Example 11(2). The enzyme reaction was carried out at 37° C. for 15.5 hours.

Experiment [7] addresses T4, β3GnT (Homo sapiens, UniProt Q9NY97).
T4 sequence (Q9NY97 1-397): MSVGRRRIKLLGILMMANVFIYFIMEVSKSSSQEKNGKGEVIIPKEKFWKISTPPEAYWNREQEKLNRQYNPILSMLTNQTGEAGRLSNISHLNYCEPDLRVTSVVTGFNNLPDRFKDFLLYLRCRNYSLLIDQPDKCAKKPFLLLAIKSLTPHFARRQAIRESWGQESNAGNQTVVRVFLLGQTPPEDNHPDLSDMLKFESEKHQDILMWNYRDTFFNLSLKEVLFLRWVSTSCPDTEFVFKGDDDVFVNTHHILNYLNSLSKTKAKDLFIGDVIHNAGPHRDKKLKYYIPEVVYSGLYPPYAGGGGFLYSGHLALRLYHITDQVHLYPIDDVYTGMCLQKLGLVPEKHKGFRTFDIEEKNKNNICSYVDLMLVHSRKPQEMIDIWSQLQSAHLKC
Particulars: reported values, Proc. Natl. Acad. Sci. USA, 96, 406 (1999), cited from earlier work.

Where two headings read alike, the source gives them in different places.

T1 sequence (Q9C0J1 56-378): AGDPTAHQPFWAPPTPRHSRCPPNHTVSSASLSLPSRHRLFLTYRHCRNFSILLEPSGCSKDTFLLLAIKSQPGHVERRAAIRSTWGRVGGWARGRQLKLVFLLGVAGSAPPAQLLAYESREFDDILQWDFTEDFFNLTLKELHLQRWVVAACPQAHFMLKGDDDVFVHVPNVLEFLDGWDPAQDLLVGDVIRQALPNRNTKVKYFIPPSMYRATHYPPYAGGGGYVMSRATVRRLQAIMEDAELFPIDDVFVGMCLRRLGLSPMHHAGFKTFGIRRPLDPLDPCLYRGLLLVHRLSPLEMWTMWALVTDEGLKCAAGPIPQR

Take lacto-N-fucopentaose III [LNFP-III]: the “Relative activity (%)” value in experiment [1] is recorded as 7.4%; in experiment [2], 4.7%; in experiment [3], 0%.

In the case of lacto-N-neohexaose [LNnH], the “Relative activity (%) G3” value in experiment [4] was determined as 132%. In experiment [5], the “Relative activity (%)” value was 45%. Moreover, the “Relative activity (%) G7” value in experiment [6] was 0.05%.

For `CC(=O)N[C@H]1[C@H](O[C@H]2[C@@H](O)[C@@H](CO)O[C@@H](O[C@@H]([C@H](O)[C@@H](O)C=O)[C@H](O)CO)[C@@H]2O)O[C@H](CO)[C@@H](O[C@@H]2O[C@@H](C)[C@@H](O)[C@@H](O)[C@@H]2O)[C@@H]1O[C@@H]1O[C@H](CO)[C@H](O)[C@H](O)[C@H]1O` [LNFP-II, lacto-N-fucopentaose II], the “Relative activity (%)” value in experiment [1], in experiment [2] and in experiment [3] was 0% throughout.

Turning to lacto-N-fucopentaose V [LNFP-V], the “Relative activity (%)” value in experiment [1] is given as 8.1%; in experiment [2] it was 65.1%; in experiment [3], 30.8%.

With `CC(=O)N[C@H]1C(O)O[C@H](CO)[C@@H](O[C@@H]2O[C@H](CO)[C@H](O)[C@H](O)[C@H]2O)[C@@H]1O` (stereo partly shown) [LacNAc, N-acetyllactosamine], in experiment [4], the “Relative activity (%) G3” value was determined as 21%. Also, the “Relative activity (%) β3GnT” value in experiment [7] (Table 4) and in experiment [7] (Table 6) was 95.5% throughout. Also, the “Relative activity (%)” value in experiment [5] is listed as 0%. The “Relative activity (%) G7” value in experiment [6] was 8.5%.

Turning to `OC[C@H]1O[C@@H](O[C@H]2[C@H](O)[C@@H](O)C(O)O[C@@H]2CO)[C@H](O)[C@@H](O)[C@H]1O` (stereo partly shown) [Lactose, lactose], in experiment [4], the “Relative activity (%) G3” value is recorded as 128%. For the same compound, the “Relative activity (%) β3GnT” value in experiment [7] (Table 4) and in experiment [7] (Table 6) was 67.1% each time. Further, the “Relative activity (%)” value in experiment [5] is on record as 235%. Also, in experiment [6], the “Relative activity (%) G7” value came out at 32.6%.

In the case of `CC(=O)N[C@H]1[C@H](O[C@H]2[C@@H](O)[C@@H](CO)O[C@@H](O[C@@H]([C@H](O[C@@H]3O[C@@H](C)[C@@H](O)[C@@H](O)[C@@H]3O)[C@@H](O)C=O)[C@H](O)CO)[C@@H]2O)O[C@H](CO)[C@@H](O[C@@H]2O[C@@H](C)[C@@H](O)[C@@H](O)[C@@H]2O)[C@@H]1O[C@@H]1O[C@H](CO)[C@H](O)[C@H](O)[C@H]1O` [LNDFH-II, lacto-N-difucohexaose II], the “Relative activity (%)” value in experiment [1], in experiment [2] and in experiment [3] was 0% throughout.
